Read-outs that look alike come from different tables or passages of the source.
Tests used:
[1] = test system: CCRF-CEM cells; experiment: Inhibition of growth of tumor cells, CCRF-CEM human lymphoblastic leukemia (MTT); assay type: cell-based; conditions: for IC50: 5 days continuous exposure, MTT, read-out: Cell Culture IC50, CCRF-CEM
Method: (§1) In Vitro Testing to Determine Inhibition of Growth of Tumor Cells
(§2) Growth was measured over 3 days (L1210) or 5 days (CCRF-CEM, GC3 /M TK^-) of continuous exposure to varying concentrations of each test compound, added 4 h. after initial cell plating, by the MTT-tetrazolium reduction assay of T. J. Mosmann [J. Immunol. Meth. […] Water insoluble derivatives were dissolved in DMSO and diluted to a final concentration of 0.5% solvent in cell cultures.

[2] = test system: L1210 murine leukemia cells; experiment: Inhibition of growth of tumor cells, L1210 murine leukemia (MTT); assay type: cell-based; conditions: for IC50: 3 days continuous exposure, MTT, read-out: Cell Culture IC50, L1210
Method: as §1, §2

[3] = molecular target: human TS (thymidylate synthase) (Homo sapiens, UniProt P04818); experiment: Inhibition constants against 5,10-methylenetetrahydrofolate for thymidylate synthase, human enzyme (tritium release); assay type: biochemical; conditions: cofactor as variable substrate, pH 7.6, 24° C.
Sequence of human TS (thymidylate synthase) (P04818 2-313 limits assumed): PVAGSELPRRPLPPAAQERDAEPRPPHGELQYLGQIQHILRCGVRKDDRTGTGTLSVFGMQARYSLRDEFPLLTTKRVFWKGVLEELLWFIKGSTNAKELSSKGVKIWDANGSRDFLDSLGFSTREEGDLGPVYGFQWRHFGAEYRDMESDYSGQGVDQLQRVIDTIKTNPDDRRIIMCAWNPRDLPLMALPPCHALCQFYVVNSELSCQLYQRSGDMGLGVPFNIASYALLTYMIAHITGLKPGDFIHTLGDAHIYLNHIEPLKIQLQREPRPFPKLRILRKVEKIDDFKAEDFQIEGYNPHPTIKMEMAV
Method: (§3) Determination of Inhibition Constants Against 5,10-Methylenetetrahydrofolate for the Enzyme Thymidylate Synthase
(§4) Inhibition constants, Ki, slope and Ki, intercept [W. W. Cleland, Biochim. Biophys. […] The cofactor was present as the variable substrate under conditions of saturating radiolabelled 2'-deoxyuridine 5-monophosphate (dUMP). […] Assays of human TS also contained 1-5 μg/mL bovine serum albumin to stabilize the protein. Reactions were initiated by the addition of enzyme and were carried out for 5 minutes at 24° C., and then quenched by the addition of charcoal (15 mg in 0.1 mL H2 O). The quenched samples were centrifuged at 10,000 rpm for 12-15 min at […] to remove unreacted dUMP which had bound to the charcoal, and 0.1 mL of the supernatant was counted by liquid scintillation in the presence of 5 mL ecolume to determine the release of tritium label from the 5-position of the dUMP. […] Experimental results were analyzed by EZ-FIT, a nonlinear regression analysis program (Perrella Scientific, Springfield, Pa.) which was used to fit all data points simultaneously to a mixed noncompetitive inhibition scheme.

[4] = test system: GC3/M TK- cells; experiment: Inhibition of growth of tumor cells, thymidine kinase-deficient human colon adenocarcinoma GC3/M TK- (MTT); assay type: cell-based; conditions: for IC50: 5 days continuous exposure, MTT, read-out: Cell Culture IC50, GC3-M (TK-)
Method: as §1, §2

[5] = molecular target: E. coli TS (thymidylate synthase) (Escherichia coli, UniProt P0A884); experiment: Inhibition constants against 5,10-methylenetetrahydrofolate for thymidylate synthase, E. coli enzyme (tritium release); assay type: biochemical
Sequence of E. coli TS (thymidylate synthase) (P0A884 whole entry): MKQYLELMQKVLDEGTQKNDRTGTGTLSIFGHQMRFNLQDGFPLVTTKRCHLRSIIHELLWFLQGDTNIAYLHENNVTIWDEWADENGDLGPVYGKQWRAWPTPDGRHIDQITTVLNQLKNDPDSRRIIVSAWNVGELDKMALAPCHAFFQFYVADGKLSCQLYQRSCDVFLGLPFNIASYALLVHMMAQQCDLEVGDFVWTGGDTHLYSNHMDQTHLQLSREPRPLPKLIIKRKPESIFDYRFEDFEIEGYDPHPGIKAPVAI
Method: as §3, §4

[6] = Ki Data, human thymidylate synthase
[7] = read-out: Ki Data, human thymidylate synthase

SMILES	IC50 ([1]; Homo sapiens, CCRF-CEM, 120 h) [µM]	IC50 ([2]; Mus musculus, L1210, 72 h) [µM]	IC50 ([4]; Homo sapiens, GC3/MTK-, 120 h) [µM]	Ki [5] [µM]	Ki [3, 7] [µM]	further results
Cc1nc2ccc(C)c(Sc3ccnc(N(C)C)c3)c2c(=O)[nH]1 [Compound 26A, 3,4-Dihydro-2,6-dimethyl-4-oxo-5-[4-(6-dimethylaminopyridylthio)]-quinazoline]	10.5	4.05	18			Ki [3, 6]: 0.079 µM
Cc1nc2ccc(C)c(Sc3ccncc3)c2c(=O)[nH]1 [Compound 8A, 3,4-Dihydro-2,6-dimethyl-4-oxo-5-(4-pyridylthio)-quinazoline]	5.2	3.5	6	0.89 ± 0.28		Ki [3, 6]: 0.062 µM
Cc1ccc2nc(N)[nH]c(=O)c2c1Sc1ccncc1 [Compound 14A, 2-Amino-3,4-dihydro-6-methyl-4-oxo-5-(4-pyridylthio)-quinazoline]	0.81	1	1	0.15 ± 0.03		
Cc1ccc2nc(N)[nH]c(=O)c2c1Sc1ccnnc1 [Compound 30A]	0.88	1.6	1.5		0.011	
Cc1nc2ccc(C)c(Sc3ccc([N+](=O)[O-])cc3)c2c(=O)[nH]1 [Compound 10A]	2.9	3	> 4	0.75 ± 0.08		Ki [3, 6]: 0.083 ± 0.011 µM
Cc1nc(O)c2c(Sc3ccccc3)cccc2n1 [Compound 2A]				> 10		
Cc1nc2cccc(Cn3ccc4cc(Cl)ccc43)c2c(=O)[nH]1 [Compound 3A, 5-Chloro-N-[(3,4-dihydro-2-methyl-4-oxo-5-quinazolyl)methyl]indole]	> 12.3		> 12.7	> 3	> 3	inhibition at 12.3 µM ([1]; Homo sapiens, CCRF-CEM, 120 h, > 12.3 μM, 5 days): 10%; inhibition at 12.7 µM ([4]; Homo sapiens, GC3/MTK-, 120 h, > 12.7 μM, 5 days): 20%
Cc1nc2ccc(C)c(Sc3ccnc(C(F)(F)F)c3)c2c(=O)[nH]1 [Compound 17A, 3,4-Dihydro-2,6-dimethyl-4-oxo-5-[4-(6-trifluoromethylpyridylthio)]-quinazoline]					0.13 ± 0.03	
Cc1nc2ccc(C)c(Sc3ccnnc3)c2c(=O)[nH]1 [Compound 29A]			> 12.5		0.12 ± 0.02	
Cc1nc2cccc(Sc3ccncc3)c2c(=O)[nH]1 [Compound 7A]	> 26.9		> 26.9	38 ± 5	2.1 ± 0.5	inhibition at 26.9 µM ([1]; Homo sapiens, CCRF-CEM, 120 h, @ > 26.9 μM, 5 days): 37%; growth inhibition, L1210 ([2]; @ 20 um, 3 days): 68%; growth inhibition, GC3-M (TK-) ([4]; @ > 26.9 μM, 5 days): none
Cc1ccc2nc(N)[nH]c(=O)c2c1Sc1ccncc1 [Compound 25A]						IC50 [1]: 1.1 µM; IC50 [2]: 0.59 µM; IC50 [4]: 1.7 µM
Cc1nc(O)c2c(Oc3ccccc3)cccc2n1 [Compound 1A]				> 100		
COc1ccc(-c2cncn2Cc2cccc3nc(C)[nH]c(=O)c23)cc1 [Compound 33A]	18	25	> 25	36 ± 1.5	47 ± 17	inhibition at 25 µM ([4]; Homo sapiens, GC3/MTK-, 120 h, @ > 25 μM, 5 days): 20%
Cc1nc2ccc(O)c(Sc3ccncc3)c2c(=O)[nH]1 [Compound 15A, 3,4-Dihydro-6-hydroxy-2-methyl-4-oxo-5-(4-pyridylthio)-quinazoline]	> 50	> 50	> 50		19 ± 11	inhibition at 50 µM ([1]; Homo sapiens, CCRF-CEM, 120 h, @ > 50 μM, 5 days, read-out: growth inhibition, CCRF-CEM): 40%; inhibition at 50 µM ([2]; Mus musculus, L1210, 72 h, @ > 50 μM, 3 days, read-out: growth inhibition, L1210): 27%; inhibition at 50 µM ([4]; Homo sapiens, GC3/MTK-, 120 h, @ > 50 μM, 5 days): 4%

Source: patent US5430148A, “Antiproliferative quinazolines” (Agouron Pharmaceuticals, Inc., priority 1992, dated 1995)
